Measured values published in ChEMBL document CHEMBL1131398, “First synthesis of alternating SATE-phosphotriester/phosphodiester prooligonucleotides on solid support” (Bioorg Med Chem Lett, 1998).

Tests used:
[1] = Half-life in the presence of total cell extract(TCE) was evaluated.; assay type: ADME
[2] = Half-life in the presence of pig liver esterase(PLE) was evaluated.; assay type: ADME, tissue-based, Sus scrofa
[3] = Lipophilicity of compound evaluated by HPLC retention time on reverse phase C18 column; assay type: physicochemical
[4] = Half-life in the presence of pig liver esterase(PLE) was evaluated; […]; assay type: ADME, Sus scrofa; settings: in vitro

Row | half-life [1] | half-life [2] | Retention time [3] | T1/2 [4] | Structure (SMILES)
1 | 15 min | 5 min | 54.7 min |  | CO[C@@H]1[C@H](OP(=O)(O)O)[C@@H](COP(=O)(O)O[C@H]2[C@@H](OC)[C@H](n3ccc(=O)[nH]c3=O)O[C@@H]2COP(=O)(O)O[C@H]2[C@@H](OC)[C@H](n3ccc(=O)[nH]c3=O)O[C@@H]2COP(=O)(OCCSC(=O)C(C)(C)C)O[C@H]2C[C@H](n3cc(C)c(=O)[nH]c3=O)O[C@@H]2COP(=O)(OCCSC(=O)C(C)(C)C)O[C@H]2C[C@H](n3cc(C)c(=O)[nH]c3=O)O[C@@H]2COP(=O)(OCCSC(=O)C(C)(C)C)O[C@H]2C[C@H](n3cc(C)c(=O)[nH]c3=O)O[C@@H]2COP(=O)(OCCSC(=O)C(C)(C)C)O[C@H]2C[C@H](n3cc(C)c(=O)[nH]c3=O)O[C@@H]2COP(=O)(OCCSC(=O)C(C)(C)C)O[C@H]2C[C@H](n3cc(C)c(=O)[nH]c3=O)O[C@@H]2COP(=O)(OCCSC(=O)C(C)(C)C)O[C@H]2C[C@H](n3cc(C)c(=O)[nH]c3=O)O[C@@H]2COP(=O)(O)O[C@H]2[C@@H](OC)[C@H](n3cc(C)c(=O)[nH]c3=O)O[C@@H]2COP(=O)(O)O[C@H]2[C@@H](OC)[C@H](n3ccc(=O)[nH]c3=O)O[C@@H]2COP(=O)(O)O[C@H]2[C@@H](OC)[C@H](n3ccc(=O)[nH]c3=O)O[C@@H]2CO)O[C@H]1n1ccc(=O)[nH]c1=O (stereo not given in full)
2 | 150 min |  | 51.7 min | Stable | Cc1cn([C@H]2C[C@H](OP(=O)(O)OC[C@H]3O[C@@H](n4cc(C)c(=O)[nH]c4=O)C[C@@H]3OP(=S)(OCCSC(=O)C(C)(C)C)OC[C@H]3O[C@@H](n4cc(C)c(=O)[nH]c4=O)C[C@@H]3OP(=O)(O)OC[C@H]3O[C@@H](n4cc(C)c(=O)[nH]c4=O)C[C@@H]3OP(=S)(OCCSC(=O)C(C)(C)C)OC[C@H]3O[C@@H](n4cc(C)c(=O)[nH]c4=O)C[C@@H]3OP(=O)(O)OC[C@H]3O[C@@H](n4cc(C)c(=O)[nH]c4=O)C[C@@H]3OP(=S)(OCCSC(=O)C(C)(C)C)OC[C@H]3O[C@@H](n4cc(C)c(=O)[nH]c4=O)C[C@@H]3OP(=O)(O)OC[C@H]3O[C@@H](n4cc(C)c(=O)[nH]c4=O)C[C@@H]3OP(=S)(OCCSC(=O)C(C)(C)C)OC[C@H]3O[C@@H](n4cc(C)c(=O)[nH]c4=O)C[C@@H]3OP(=O)(O)OC[C@H]3O[C@@H](n4cc(C)c(=O)[nH]c4=O)C[C@@H]3OP(=S)(OCCSC(=O)C(C)(C)C)OC[C@H]3O[C@@H](n4cc(C)c(=O)[nH]c4=O)C[C@@H]3OP(=O)(O)OC[C@H]3O[C@@H](n4cc(C)c(=O)[nH]c4=O)C[C@@H]3OP(O)(=S)OCCSC(=O)C(C)(C)C)[C@@H](CO)O2)c(=O)[nH]c1=O (stereo not given in full)
3 | 1020 min |  | 58.4 min | Stable | Cc1cn([C@H]2C[C@H](OP(=O)(O)S)[C@@H](COP(=S)(OCCSC(=O)C(C)(C)C)O[C@H]3C[C@H](n4cc(C)c(=O)[nH]c4=O)O[C@@H]3COP(=O)(S)O[C@H]3C[C@H](n4cc(C)c(=O)[nH]c4=O)O[C@@H]3COP(=S)(OCCSC(=O)C(C)(C)C)O[C@H]3C[C@H](n4cc(C)c(=O)[nH]c4=O)O[C@@H]3COP(=O)(S)O[C@H]3C[C@H](n4cc(C)c(=O)[nH]c4=O)O[C@@H]3COP(=S)(OCCSC(=O)C(C)(C)C)O[C@H]3C[C@H](n4cc(C)c(=O)[nH]c4=O)O[C@@H]3COP(=O)(S)O[C@H]3C[C@H](n4cc(C)c(=O)[nH]c4=O)O[C@@H]3COP(=S)(OCCSC(=O)C(C)(C)C)O[C@H]3C[C@H](n4cc(C)c(=O)[nH]c4=O)O[C@@H]3COP(=O)(S)O[C@H]3C[C@H](n4cc(C)c(=O)[nH]c4=O)O[C@@H]3COP(=S)(OCCSC(=O)C(C)(C)C)O[C@H]3C[C@H](n4cc(C)c(=O)[nH]c4=O)O[C@@H]3COP(=O)(S)O[C@H]3C[C@H](n4cc(C)c(=O)[nH]c4=O)O[C@@H]3COP(=S)(OCCSC(=O)C(C)(C)C)O[C@H]3C[C@H](n4cc(C)c(=O)[nH]c4=O)O[C@@H]3CO)O2)c(=O)[nH]c1=O (stereo not given in full)

Continued, compound first:

Row | Structure (SMILES) | half-life [1] | half-life [2] | Retention time [3] | T1/2 [4]
4 | Cc1cn([C@H]2C[C@H](OP(=O)(O)S)[C@@H](COP(=O)(OCCSC(=O)C(C)(C)C)O[C@H]3C[C@H](n4cc(C)c(=O)[nH]c4=O)O[C@@H]3COP(=O)(S)O[C@H]3C[C@H](n4cc(C)c(=O)[nH]c4=O)O[C@@H]3COP(=O)(OCCSC(=O)C(C)(C)C)O[C@H]3C[C@H](n4cc(C)c(=O)[nH]c4=O)O[C@@H]3COP(=O)(S)O[C@H]3C[C@H](n4cc(C)c(=O)[nH]c4=O)O[C@@H]3COP(=O)(OCCSC(=O)C(C)(C)C)O[C@H]3C[C@H](n4cc(C)c(=O)[nH]c4=O)O[C@@H]3COP(=O)(S)O[C@H]3C[C@H](n4cc(C)c(=O)[nH]c4=O)O[C@@H]3COP(=O)(OCCSC(=O)C(C)(C)C)O[C@H]3C[C@H](n4cc(C)c(=O)[nH]c4=O)O[C@@H]3COP(=O)(S)O[C@H]3C[C@H](n4cc(C)c(=O)[nH]c4=O)O[C@@H]3COP(=O)(OCCSC(=O)C(C)(C)C)O[C@H]3C[C@H](n4cc(C)c(=O)[nH]c4=O)O[C@@H]3COP(=O)(S)O[C@H]3C[C@H](n4cc(C)c(=O)[nH]c4=O)O[C@@H]3COP(=O)(OCCSC(=O)C(C)(C)C)O[C@H]3C[C@H](n4cc(C)c(=O)[nH]c4=O)O[C@@H]3CO)O2)c(=O)[nH]c1=O (stereo not given in full) | 180 min |  | 51.9 min | Stable
5 | Cc1cn([C@H]2C[C@H](OP(=O)(O)O)[C@@H](COP(=O)(OCCSC(=O)C(C)(C)C)O[C@H]3C[C@H](n4cc(C)c(=O)[nH]c4=O)O[C@@H]3COP(=O)(O)O[C@H]3C[C@H](n4cc(C)c(=O)[nH]c4=O)O[C@@H]3COP(=O)(OCCSC(=O)C(C)(C)C)O[C@H]3C[C@H](n4cc(C)c(=O)[nH]c4=O)O[C@@H]3COP(=O)(O)O[C@H]3C[C@H](n4cc(C)c(=O)[nH]c4=O)O[C@@H]3COP(=O)(OCCSC(=O)C(C)(C)C)O[C@H]3C[C@H](n4cc(C)c(=O)[nH]c4=O)O[C@@H]3COP(=O)(O)O[C@H]3C[C@H](n4cc(C)c(=O)[nH]c4=O)O[C@@H]3COP(=O)(OCCSC(=O)C(C)(C)C)O[C@H]3C[C@H](n4cc(C)c(=O)[nH]c4=O)O[C@@H]3COP(=O)(O)O[C@H]3C[C@H](n4cc(C)c(=O)[nH]c4=O)O[C@@H]3COP(=O)(OCCSC(=O)C(C)(C)C)O[C@H]3C[C@H](n4cc(C)c(=O)[nH]c4=O)O[C@@H]3COP(=O)(O)O[C@H]3C[C@H](n4cc(C)c(=O)[nH]c4=O)O[C@@H]3COP(=O)(OCCSC(=O)C(C)(C)C)O[C@H]3C[C@H](n4cc(C)c(=O)[nH]c4=O)O[C@@H]3CO)O2)c(=O)[nH]c1=O (stereo not given in full) | 60 min |  | 48.8 min | Stable
